From patent US9248085B2, “Effective depilatory article” (The Procter & Gamble Company, priority 2011, dated 2016) come the findings set out here.

The assay in a line: Hair removal from the skin and skin irritation by thioglycolate salts (statement, no method). The note with it: even at low doses. Type of assay: in vivo.

For `O=C([O-])CS.[K+]` [potassium thioglycolate], the “hair removal from the skin” value is listed as “effective at removing hair from the skin”.
